The nature of this data set: gradient 5% acetonitrile 3 min, to 50% in 2 min, to 85% in 15 min, held 3 min, 100 µL/min. Conditions: column: Zorbax Extend-C18 2.1 x 50 mm; eluents: water / acetonitrile, 0.1% formic acid. The essentials:
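The system's dead and dwell volumes were 40 μL and 900 μL, with a Zorbax Extend-C18 column (2.1 × 50 mm, 1.8 μm) run at 100 μL/min in water and acetonitrile containing 0.1% formic acid each. Pure standards were analyzed in mixtures of ~100 molecules by HPLC–quadrupole time-of-flight mass spectrometry in positive and negative ionization mode. Retention time was assigned from computationally picked, manually inspected adduct peaks.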
`CCCNC(=O)C1CCCN(c2nnc(C)c3c(C)n(-c4ccc(Cl)cc4)nc23)C1` (configuration not stated): the RP-LC retention time was 693 s. Regarding `Cc1ccc(NC(=O)C2CCCN(c3ncnc4c3oc3ccccc34)C2)cc1` (configuration not stated), the RP-LC retention time came to 825 s.

The compound `COc1ccc2nc(OC3CCN(C(=O)c4ccc(S(C)(=O)=O)cc4)CC3)sc2c1` gave an RP-LC retention time of 774 s. To `O=C(NCCC1=CCCCC1)C(=O)NCC1CCN(Cc2ccco2)CC1` belongs 581 s.

For `COc1cccc(-c2nnc3sc(CN4CCc5ccccc5C4)cn23)c1`, the RP-LC retention time worked out at 582 s. Take `Cc1ccc(C)c(NC(=O)Cn2cccc2-c2nnc(C3CCC3)o2)c1`: the RP-LC retention time came out at 977 s. The compound `COc1ccc(-c2ncc3c(=O)n(CC(=O)Nc4ccc(OC)c(OC)c4)cnc3n2)cc1` returned an RP-LC retention time of 750 s.

Regarding `Cc1ccc(C2=NC3(CCN(C(=O)c4cnccn4)CC3)ON2)cc1`, the RP-LC retention time worked out at 680 s. The compound `CC(C)CCNC(=O)c1nnc(-c2ccc(S(=O)(=O)N(C)C)cc2)o1` registered an RP-LC retention time of 877 s. `COc1cccc(N2CCN(Cc3nc4nc(C)cc(N(C)C)n4n3)CC2)c1`: the RP-LC retention time was found to be 610 s. The result for `Cc1noc(-c2ccc(OC3CN(C(=O)C4CCOC4)C3)cc2)n1` (configuration not stated) reads 695 s; that for `O=C(CC(F)(F)F)N1CCCC(CCc2nnc(-c3cnccn3)o2)C1` (configuration not stated), 717 s. `CCCNC(=O)c1cc2c(-c3cccs3)nn(-c3ccccc3)c2n1C` had an RP-LC retention time of 953 s.

In turn, `Cc1ccc(Nc2c(-c3ccccc3O)nc3ccc(Cl)cn23)cc1` yielded an RP-LC retention time of 1080 s. To `O=C(Nc1ccc2c(c1)OCCO2)NC1CCN(c2ccc(F)cc2)C1=O` (configuration not stated) belongs 762 s.

As to `Cc1ccc(/C=C/C(=O)N2CCC(c3cc(N)on3)CC2)cc1`, the RP-LC retention time is 751 s. To `Cc1ccccc1Nc1c(-c2ccc(Cl)cc2)nc2ncccn12` belongs 908 s; to `CCc1cc(-c2csc(S(=O)(=O)NCCCc3ccccc3)c2)on1`, 1060 s; to `COc1ccc(NC(=O)N2CC(N(C3CCOCC3)S(C)(=O)=O)C2)cc1OC`, 630 s. Take `Cc1ccc(NC(=O)Nc2ccc3c(c2)CCN3S(=O)(=O)c2ccccc2)cc1F`: the RP-LC retention time was 1020 s. For `O=C(c1cc(-c2cccnc2)n[nH]1)N1CCCC(C(=O)N2CCN(C(=O)c3ccco3)CC2)C1` (configuration not stated), the RP-LC retention time is 556 s. Compound `O=C(NC1CCN(c2cc(-c3ccc(Cl)cc3)[nH]n2)C1)c1ccc2nc[nH]c2c1` (configuration not stated) gave an RP-LC retention time of 626 s.

As for `Cn1cc(S(=O)(=O)N2CCC(C(=O)NCc3ccccn3)CC2)cc1C(=O)N1CCCC1`, the RP-LC retention time is 583 s. Take `COc1cc(F)ccc1-c1ccnc2nc(CCc3ccccc3)nn12`: the RP-LC retention time is 951 s.

As for `Cc1ccc(S(=O)(=O)N2CCCC2)cc1-c1nnc(-c2ccccc2Cl)o1`, the RP-LC retention time was 1070 s. The result for `O=C(Nc1cccnc1)c1ccc(CNS(=O)(=O)c2cccc(C(F)(F)F)c2)cc1` reads 635 s.

For the compound `CCC(NC(=O)C1CCN(c2cncnc2N2CCCCC2)CC1)c1cccs1` (configuration not stated), the RP-LC retention time amounted to 706 s.

For `O=C(NCCc1c[nH]c2ccc(F)cc12)c1ccc(F)cc1`, the RP-LC retention time amounted to 831 s. `Cc1cc(-c2nnc(-c3ccccc3)o2)c(C)n1CC(=O)NCc1ccc(F)cc1F` showed an RP-LC retention time of 934 s. The result for `O=C(c1ccc2ccccc2n1)N1CCN(C(=O)N2C[C@H]3C[C@H](C2)[C@H]2CCCC(=O)N2C3)CC1` reads 650 s; that for `O=c1[nH]c(SCc2nnc(Nc3ccccc3)s2)nc2sc3c(c12)CCC3`, 801 s; that for `CCCCn1c(=O)c2ccccc2n(Cc2nc(-c3ccccc3OCC)no2)c1=O`, 1130 s.
